Tested on: progenitor stem cells
Experiment: Proliferation and phenotypic responses to bioactive factors: progenitor cells
Assay type: cell-based
Description: Having access to mixed populations of progenitor stem cells, progenitor stem cell clones, and pluripotent stem cell clones permits one to address the influence of various bioactive factors (e.g. recombinant growth factors, purified compounds, and novel inductive factors) on the growth characteristics and phenotypic expression of these stem cells.
Cryopreserved cells are thawed and plated in MSC-1 at 5, 10, or 20×10^3 cells per well of gelatinized 24-well plates following the standard protocol. Twenty-four hours after initial plating the medium is changed to testing medium (TM) 1 to 6 (TM-1, TM-2, TM-3, TM-4, TM-5, or TM-6). TM-1 to TM-4 consist of Ultraculture (cat. no. 12-725B, lot. nos. OMO455 [TM-1], 1M1724 [TM-2], 2M0420 [TM-3], or 2M0274 [TM-4], Bio-Whittaker, Walkersville, Md.), medium (EMEM or Opti-MEM 0.01 mM β-mercaptoethanol), and 1% (v/v) antibiotic-antimycotic, pH 7.4. TM-5 consists of 98% (v/v) medium, 1% (v/v) HS, and 1% (v/v) antibiotic-antimycotic, pH 7.4. TM-6 consists of 98.5% (v/v) medium, 0.5% (v/v) HS, and 1% (v/v) antibiotic-antimycotic, pH 7.4. […] Four testing media (TM#'s 1-4), each containing various concentrations of Ultraculture, were used as. […] The four Ultraculture-based testing media were: TM-1=15% (v/v) Ultraculture (Lot no. OMO455): 84% (v/v) medium: 1% (v/v) antibiotics; TM-2=15% (v/v) Ultraculture (Lot no. 1M1724): 84% (v/v) medium: 1% (v/v) antibiotics; TM-3=50% (v/v) Ultraculture (Lot no. 2M0420): 49% (v/v) medium: 1% (v/v) antibiotics; and TM-4=75% (v/v) Ultraculture (Lot no. 2M0274): 24% (v/v) medium: 1% (v/v) antibiotics. Pre-incubation for 24 hr in testing medium alone is used to wash out any potential synergistic components in the MSC-1 medium. Twenty-four hours later the testing medium is changed to one of the following. For controls, TM-1 to TM-6 alone is used. To identify clones of progenitor cells, the medium is replaced with TM-1 to TM-6 containing 2 μg/ml insulin (Sigma), an agent that accelerates the appearance of phenotypic expression markers in progenitor cells (TABLE 12). To identify clones of pluripotent cells, the medium is replaced with TM-1 to TM-6 containing 10^−10 to 10^−6 M dexamethasone (Sigma), a general non-specific lineage-inductive agent (TABLE 13). Control and treated cultures are propagated for an additional 30-45 days with medium changes every other day. Four culture wells are used per concentration per experiment. During the 0-45 day time period the cultures are examined subjectively for changes in morphological characteristics on a daily basis. Alterations in phenotypic expression are correlated with the days of treatment and associated insulin or dexamethasone concentrations. The experiment is then repeated utilizing these parameters to confirm objectively the phenotypic expression markers using established histological, functional/histochemical, ELICA/flow cytometry, and molecular assays (TABLE 13).

Substance: insulin
- Proliferation, Progenitor: number of times the agent increased the DNA content per well versus its respective control: 2 times
- Phenotypic Expression, Progenitor (presence and approximate distribution of differentiated phenotypes within the culture wells): All+++

— patent US10160948B2, “Pluripotent embryonic-like stem cells, compositions, methods and uses thereof” (ABT HOLDING COMPANY, priority 1999, dated 2018)
